Experimental data from paper PMC2920039 (Bioorganic & medicinal chemistry, 2010).

Columns and labels:
[1] = molecular target: CB2 receptor (Homo sapiens, UniProt P34972); format: binding
[2] = tested on: CB2 receptor; conditions: cited from earlier work
[3] = cited from earlier work
[4] = tested on: CB2 receptor; conditions: cited from earlier work; remark: listed apart in the source

Sequence of CB2 receptor (Homo sapiens, UniProt P34972) (P34972 whole entry): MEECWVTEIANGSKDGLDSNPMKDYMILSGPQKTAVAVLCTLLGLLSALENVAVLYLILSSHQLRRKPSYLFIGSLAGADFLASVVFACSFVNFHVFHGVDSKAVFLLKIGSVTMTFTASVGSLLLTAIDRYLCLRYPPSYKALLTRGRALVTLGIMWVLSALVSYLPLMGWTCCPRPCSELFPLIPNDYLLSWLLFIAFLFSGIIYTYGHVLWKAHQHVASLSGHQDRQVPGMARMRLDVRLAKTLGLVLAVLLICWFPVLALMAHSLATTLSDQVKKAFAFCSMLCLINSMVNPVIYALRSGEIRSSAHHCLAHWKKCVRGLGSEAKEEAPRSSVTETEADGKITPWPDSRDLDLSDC

| Structure (SMILES) | CB1/CB2 (ratio of Ki) [1] | selectivity for the CB2 receptor [2] [fold] | Ki ([2]; read-out: Ki CB2) [nM] | activity in the mouse model of cannabinoid activity [3] | agonism at the CB2 receptor [4] |
| --- | --- | --- | --- | --- | --- |
| CCCCCCC(C)(C)c1ccc([C@H]2CCC[C@@H](O)C2)c(OC)c1 (relative stereo) [JWH-441, (1R*,3S*)3-[2-Methoxy-4-(1,1-dimethylheptyl)phenyl]cyclohexanol] | >12 |  |  |  |  |
| CCCCCCC(C)(C)c1cc(OC)c2c(c1)OC(C)(C)C1CC=C(C)CC21 (stereo not drawn) [1-methoxy-3-(dimethylheptyl)-•^8-THC] |  | 12 | 57 |  |  |
| CCCC(C)(C)c1ccc2c(c1)OC(C)(C)[C@@H]1CC=C(C)C[C@@H]21 [JWH-133] |  | 200 |  | inactive | full agonist |
